Results from the NIST ThermoML archive (doi:10.1016/j.jct.2012.11.014).

Experiment: xn = mol fraction of the nth substance listed
Settings: 101 kPa, Liquid; for speed of sound: Frequency=2 MHz, Linear variable-path acoustic interferometer; for viscosity: Oscillating disk viscometry; for mass density: Vibrating tube method

C[NH+](C)C.O=P([O-])(O)O [trimethylammonium dihydrogen phosphate] + C[S+](C)[O-]
Settings | mass density, 298.15 K [kg/m3] | mass density, 303.15 K [kg/m3] | speed of sound, 298.15 K [m/s] | speed of sound, 303.15 K [m/s] | viscosity, 298.15 K [mPa·s] | viscosity, 303.15 K [mPa·s]
x1 = 0.0264 | 1101.75 | 1099.07 | 1494 | 1471 | 2.17 | 1.95
x1 = 0.0397 | 1104.69 | 1102.31 | 1493 | 1471 | 2.25 | 2.02
x1 = 0.0708 | 1111.45 | 1109.32 | 1492 | 1471 | 2.45 | 2.18
x1 = 0.1172 | 1121.12 | 1119.09 | 1494 | 1474 | 2.74 | 2.43
x1 = 0.1673 | 1130.48 | 1128.56 | 1496 | 1477 | 3.05 | 2.69
x1 = 0.2284 | 1141.05 | 1139.84 | 1502 | 1483 | 3.41 | 2.99
x1 = 0.2934 | 1153.02 | 1151.1 | 1510 | 1491 | 3.79 | 3.31
x1 = 0.3413 | 1160.74 | 1160.68 | 1518 | 1499 | 4.07 | 3.53
x1 = 0.4012 | 1172.7 | 1171.28 | 1527 | 1510 | 4.41 | 3.81
x1 = 0.4659 | 1185.32 | 1184.46 | 1540 | 1523 | 4.77 | 4.11
x1 = 0.5306 | 1199.2 | 1198.94 | 1554 | 1537 | 5.12 | 4.4
x1 = 0.6022 | 1215.92 | 1214.84 | 1570 | 1554 | 5.51 | 4.72
x1 = 0.6728 | 1235.08 | 1233.24 | 1587 | 1572 | 5.89 | 5.02
x1 = 0.7504 | 1257.14 | 1256.51 | 1608 | 1592 | 6.3 | 5.36
x1 = 0.8137 | 1278.01 | 1276.03 | 1624 | 1610 | 6.64 | 5.64
x1 = 0.8805 | 1302.18 | 1302.06 | 1641 | 1627 | 6.99 | 5.93
x1 = 0.9643 | 1337.27 | 1336.07 | 1662 | 1649 | 7.45 | 6.3
x1 = 0.9858 | 1347.05 | 1344.82 | 1668 | 1656 | 7.56 | 6.4
x1 = 1 | 1353.61 | 1350.62 | 1672 | 1660 | 7.64 | 6.46
